Results: US12053507B2, “Combination therapies for inhibiting sprout angiogenesis in the treatment of cancers” ([…] OF PHARMACY, LLC, priority 2010, dated 2024)
“Also recorded” adds a separate entry of the source.

Key:
VEGF = conditions: colorectal cancer; in combination with standard Saltz regime of irinotecan, 5-fluorouracil, and leucovorin; cited from earlier work
[1] = tested on: human dermal microvascular endothelial cells (HDMEC); experiment: microcarrier in vitro 3D sprout angiogenesis assay of HDMEC in fibrin gel; format: cell-based
Protocol: Human dermal microvascular endothelial cells (HDMEC) were isolated from human neonatal foreskins. Briefly, after initial harvest from minced trypsinized human foreskins, microvascular endothelial cells were further purified on a PERCOLL® density gradient. […] HDMEC were cultured on collagen type 1 coated tissue culture flasks in EGM (endothelial cell growth medium) consisting of EBM supplemented with 10 ng/ml epidermal growth factor, 0.4% bovine brain extract, 17.5 microg/ml dibutyryl cyclic AMP, and 1 microg/ml hydrocortisone in the presence of 30% normal human serum. […] All experiments were done with HDMEC below passage 10. Bovine aortic endothelial cells (BAEC) were obtained from BioWhittaker, Inc. (Walkersville, MD) and cultured according to manufacturer's instruction. BAEC between passage 4 and 8 were used for experiments.
Gelatin-coated CYTODEX®-3 microcarrier beads were prepared as described by the manufacturer. Approximately 80,000 sterile microcarrier beads were washed, resuspended in EGM, and added to approximately 4.5 million endothelial cells (HDMEC or BAEC). The beads and cells were mixed by gentle swirling, incubated at 37° C. for 6 hr, and then rotated for 24-36 hr on an orbital mixer in a 37° C. oven to generate endothelial cell-loaded microcarrier beads (EC-beads).
FIGS. 1A-1C illustrate a study of human microvascular endothelial cell angiogenesis, according to some embodiments. A microcarrier, in vitro angiogenesis assay, previously designed to investigate bovine pulmonary artery endothelial cell angiogenic behavior in bovine fibrin gels, was modified for the study of human microvascular endothelial cell angiogenesis. The HDMEC were isolated from human neonatal foreskins and used, as described above, and images were captured at various magnifications, where the effect of angiogenic factors on sprout angiogenesis was quantified visually by counting the number and percent of EC-beads with capillary sprouts.
An isotonic 1.5 mg/ml collagen solution was prepared by mixing sterile native bovine type I &III collagen (VITROGEN®, Collagen Biomaterials, Palo Alto, CA) in 5XM199 medium and distilled water. The pH was adjusted to 7.4 using 1N NaOH.
For experiments using RGD peptides, EC-beads were firstly incubated with vary concentrations of peptides for one hour and then were added to the ECM solutions. About 500 EC-beads were then added to the ECM protein solutions, followed by the addition of 0.5 U/ml human thrombin. A 0.3 ml aliquot of each suspension was immediately added to appropriate wells of a 24-well tissue culture plate. After gelation, 1 ml of fresh assay medium (EBM supplemented with 20% normal human serum for HDMEC or EBM supplemented with 10% fetal bovine serum for BAEC) was added to each well.
FIGS. 1B and 1C show how the angiogenic response was monitored visually and recorded by video image capture. Specifically, capillary sprout formation was observed and recorded with a NIKON® Diaphot-TMD inverted microscope (Nikon Inc., Melville, NY), equipped with an incubator housing with a NIKON® NP-2 thermostat and Sheldon #2004 carbon dioxide flow mixer. […] The effect of angiogenic factors on sprout angiogenesis was quantified visually by determining the number and percent of EC-beads with capillary sprouts. 100-200 beads (five random low power fields) in each of triplicate wells were counted for each experimental condition. […]

αvβ3 integrin = αvβ3 integrin (Homo sapiens, UniProt P05106+P06756); conditions: cited from earlier work
Sequence of αvβ3 integrin (P06756 31-889 limits assumed): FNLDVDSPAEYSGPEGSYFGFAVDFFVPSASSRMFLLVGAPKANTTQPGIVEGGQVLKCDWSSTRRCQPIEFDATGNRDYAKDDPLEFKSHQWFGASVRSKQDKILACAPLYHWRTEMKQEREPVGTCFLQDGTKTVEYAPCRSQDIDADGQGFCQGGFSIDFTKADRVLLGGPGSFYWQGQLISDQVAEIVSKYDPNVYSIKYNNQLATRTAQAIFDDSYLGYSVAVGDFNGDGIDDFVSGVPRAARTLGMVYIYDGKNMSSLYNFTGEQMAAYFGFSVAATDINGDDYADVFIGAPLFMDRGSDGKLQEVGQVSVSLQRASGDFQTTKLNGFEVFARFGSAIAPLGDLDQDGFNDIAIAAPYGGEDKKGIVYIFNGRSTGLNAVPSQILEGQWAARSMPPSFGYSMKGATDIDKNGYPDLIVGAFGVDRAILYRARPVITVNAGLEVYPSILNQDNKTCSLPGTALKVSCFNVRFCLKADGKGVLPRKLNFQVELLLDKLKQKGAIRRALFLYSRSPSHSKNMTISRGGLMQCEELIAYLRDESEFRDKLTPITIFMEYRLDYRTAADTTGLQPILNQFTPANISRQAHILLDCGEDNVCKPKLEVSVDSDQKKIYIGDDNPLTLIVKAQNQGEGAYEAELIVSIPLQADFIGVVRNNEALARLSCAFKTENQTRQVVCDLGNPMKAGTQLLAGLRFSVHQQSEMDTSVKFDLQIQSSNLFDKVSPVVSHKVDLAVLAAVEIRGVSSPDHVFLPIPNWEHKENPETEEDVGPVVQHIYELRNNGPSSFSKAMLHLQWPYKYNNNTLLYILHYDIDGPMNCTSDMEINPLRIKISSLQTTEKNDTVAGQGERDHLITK
Sequence of αvβ3 integrin (P06756 891-1048 partner limits assumed): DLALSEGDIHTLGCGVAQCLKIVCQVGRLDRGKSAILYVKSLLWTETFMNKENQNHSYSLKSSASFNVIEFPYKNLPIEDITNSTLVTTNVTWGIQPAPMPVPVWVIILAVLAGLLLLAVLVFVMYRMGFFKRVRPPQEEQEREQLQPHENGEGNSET
Sequence of αvβ3 integrin (P05106 27-788): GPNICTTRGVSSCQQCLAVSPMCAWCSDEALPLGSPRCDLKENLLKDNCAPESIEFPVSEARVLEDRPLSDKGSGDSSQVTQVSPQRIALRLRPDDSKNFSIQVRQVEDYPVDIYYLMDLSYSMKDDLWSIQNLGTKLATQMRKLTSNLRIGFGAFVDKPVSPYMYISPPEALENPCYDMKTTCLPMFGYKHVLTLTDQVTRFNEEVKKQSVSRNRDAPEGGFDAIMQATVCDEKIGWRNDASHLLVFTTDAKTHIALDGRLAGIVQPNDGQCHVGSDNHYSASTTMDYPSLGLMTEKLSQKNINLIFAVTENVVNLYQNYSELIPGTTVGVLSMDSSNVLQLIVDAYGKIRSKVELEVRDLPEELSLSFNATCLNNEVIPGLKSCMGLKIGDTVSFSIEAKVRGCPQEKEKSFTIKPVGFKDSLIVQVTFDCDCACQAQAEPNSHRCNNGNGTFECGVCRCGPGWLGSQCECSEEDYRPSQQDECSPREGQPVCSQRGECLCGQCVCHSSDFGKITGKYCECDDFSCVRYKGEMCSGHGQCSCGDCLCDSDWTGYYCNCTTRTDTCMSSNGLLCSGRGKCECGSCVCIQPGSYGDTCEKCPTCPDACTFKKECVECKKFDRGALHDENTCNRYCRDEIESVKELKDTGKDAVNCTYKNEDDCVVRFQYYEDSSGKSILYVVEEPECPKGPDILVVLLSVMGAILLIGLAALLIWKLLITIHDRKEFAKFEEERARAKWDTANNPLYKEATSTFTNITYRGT

[2] = single agent, HDMEC in 3D fibrin matrix, stimulated with VEGF and bFGF

Sequence of VEGF (P15692 207-311 limits assumed): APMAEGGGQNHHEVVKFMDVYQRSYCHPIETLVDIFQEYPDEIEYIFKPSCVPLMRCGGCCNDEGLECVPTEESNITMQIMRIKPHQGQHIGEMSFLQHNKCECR

| Substance | increase of survival time (VEGF) | inhibition of sprout angiogenesis [1, 2] | inhibition of sprout angiogenesis ([1]; echistatin alone at 0.1 μg/ml, HDMEC in fibrin) | inhibition of sprout angiogenesis ([1]; echistatin alone, 1 μg/ml to 10 μg/ml, HDMEC in fibrin) | inhibition of sprout angiogenesis ([1]; single agent, HDMEC in 3D fibrin matrix, stimulated with VEGF and bFGF, listed as Echistatin) | αvβ3 integrin antagonism (αvβ3 integrin) |
| --- | --- | --- | --- | --- | --- | --- |
| AVASTATIN® (bevacizumab): human monoclonal antibody to VEGF | more than 30% |  |  |  |  |  |
| cyclo (Arg-Gly-Asp-d-Phe-Cys) [cRGDfC, reference compound] |  | dose dependently inhibited sprout angiogenesis |  |  |  |  |
| echistatin (QCESGPCCRNCKFLKEGTICKRARGDDMDDYCNGKTCDCPRNPHKGPAT; listed as Echis carinatus) |  | inhibition of sprout angiogenesis; also recorded: dose dependently inhibited sprout angiogenesis | little inhibitory effect | dose dependently | dose dependently inhibits sprout angiogenesis | potent irreversible αvβ3 integrin antagonist |
